Measured values reported in US20120253470A1, “COMPOSITIONS FOR BONE TISSUE REPAIR AND USES THEREOF” (PRESIDENT AND FELLOWS OF HARVARD COLLEGE, priority 2011, published 2012).

How the values were obtained:
segmental femur defect = experiment: Repair of long bone (segmental femur) defect in mice; assay type: in vivo, C57/BI/6 wild-type mice
Method: (§1) The model animals used in this investigation were 10 week-old, skeletally mature, male C57/BI/6 wild-type mice. Mice are anesthetized by intramuscular injection with ketamine (7.5 mg/100 g body weight and xylazine (5-10 mg/kg body weight). The skin is shaved with an electric device and then scrubbed with a povidone-iodine scrub (e.g., Betadine®) and 70% alcohol, taking care to scrub from the center of the site toward the periphery. The site is then rinsed with 70% alcohol. At least three alternating preparations of germicidal scrub and rinse are performed. Finally, the area is draped with sterile drapes, which not only help to prevent contaminants from entering the surgical field, but also provide a sterile area on which to lay sterile instruments during surgery.
Full-thickness flaps are utilized in order to gain access to the femur. A roughly 5 mm length segmental femur defect is created on the C57/BI/6 mice. Once the defect has been created all mice received cell-free grafts. Control mice received no additional treatment, while the second group of mice received treatment with prom-1 #237. Soft tissues are closed with sutures. After the surgery, the animals are monitored until fully alert and monitoring continues thereafter for any issues related to discomfort, pain or infection. […] Medication to control pain is also delivered right after surgery and if detected subsequently. […] The animal is monitored continuously until it regains sternal recumbence and is capable of holding its head up, and is returned to its regular cage only when it is alert, mobile and breathing normally. […]
(§2) Post-surgical observations include a minimum daily observation, including weekends and holidays, of the condition of the animal and the surgical site. […] Pain/distress is monitored by monitoring the physiological parameters and behavioral responses although distress is more difficult to define and identify than pain. […] The animals are evaluated at day 14 after the creation of the defect to determine the extent of repair and regeneration.

[1] = system: craniotomy defect of the calvaria; experiment: Repair of calvarial bone defect in mice; assay type: in vivo, C57/BI/6 wild-type mice; conditions: prom-1 #237 added to composition containing FDBA
Method: as §1, with “One of the most common models used to test bone repair methods and compositions is defects in the calvarial bone in a model organism. Mice, rats, and rabbits are all frequently used in this model of flat bone repair. The model” for “The model”, “weight). The calvaria skin is” for “weight). The skin is”
Full-thickness flaps are utilized in order to gain access to the calvaria. […] After the surgery, the animals are monitored until fully alert and monitoring continues thereafter for any issues related to discomfort, pain or infection. […] Medication to control pain is also delivered right after surgery and if detected subsequently. […] The animal is monitored continuously until it regains sternal recumbence and is capable of holding its head up, and is returned to its regular cage only when it is alert, mobile and breathing normally. […]
as §2, with “56” for “14”

[2] = femur defect with cell-free graft, day 14

DRVQRQTTTVVA (SEQ ID NO: 35) [prom-1 #237]
ability of existing mouse cells to colonize the scaffold material and repair a large defect in the long bone (segmental femur defect; [2]): greatly increased | total extent of recovery (segmental femur defect; [2]): markedly improved | new bone growth / callus formation at the defect (FIG. 1B) (segmental femur defect; roughly 5 mm segmental femur defect, given in addition to cell-free graft, evaluated at day 14, versus graft only): significant callus formation | time to recovery [1]: significantly reduced | ability of existing mouse cells to colonize the FDBA scaffold material and repair a large defect in the calvarial flat bone ([1]; day 56): greatly increases | total extent of recovery ([1]; day 56): markedly improved
